Test results taken from patent US4139526A, “Somatostatin analogs” (Merck & Co., Inc., priority 1977, dated 1979).

Key:
plasma insulin = experiment: Inhibition of insulin: lowering of portal vein plasma insulin in anesthetized rats; assay type: in vivo, rats (male Sprague-Dawley); details: somatostatin = 1; i.v. via external jugular vein, portal vein blood after 5 minutes; limits in parentheses
Method: (§1) The relative potencies of somatostatin analogs on the lowering of plasma insulin and glucagon are determined by the following method:
(§2) Analogs of somatostatin were compared to somatostatin in their ability to lower the levels of portal vein glucagon and insulin in anesthetized rats. Male Sprague-Dawley rats (Charles River CD) weighing 160-200 grams were anesthetized with urethane (150 mg./100 gm.) Saline or peptides were administered via the external jugular vein. After 5 minutes the portal vein was exposed and blood was collected via syringes containing 3 mg. EDTA and placed in chilled tubes containing 100 μl. of Trasylol (obtained from FBA Pharmaceuticals) for subsequent hormone analysis. Plasma levels of glucagon were determined by the method of Faloona, G. R., and Unger, R. H. "Glucagon" in Methods of Hormone Radioimmunoassay, eds. […] Plasma levels of insulin were determined by a modification of the procedure of Herbert, V., Lau, K. S. Gottlieb, C. […]
(§3) Doses were randomized between groups of animals (6 rats/group). Potency values were determined by four, six, or eight point bioassays with somatostatin as the reference standard. Relative potency values were calculated by a relative potency formula for parallel line bioassays as described in Finney, D. J. Statistical Method in Biological Assay (Charles Griffin and Co., Ltd., London) Chap. […]

plasma glucagon = experiment: Inhibition of glucagon: lowering of portal vein plasma glucagon in anesthetized rats; assay type: in vivo, rats (male Sprague-Dawley); details: somatostatin = 1; i.v. via external jugular vein, portal vein blood after 5 minutes; limits in parentheses
Method: as §1, §2, §3

growth hormone release = experiment: Inhibition of pentobarbital stimulated growth hormone release in vivo; parameters: species or system rats; details: somatostatin = 1; subcutaneous injection, blood after 15 minutes; limits in parentheses
Method: Somatostatin analogs were compared to somatostatin in their ability to inhibit the release of growth hormone in pentobarbital stimulated rats; a modification of the procedure of Brazeau et al. Endocrinology, 94, 184-187 (1974) was employed. Rats were lightly etherized and sodium pentobarbital (17 mg./Kg. was injected into the exposed Saphenous vein; somatostatin or analog was simultaneously injected subcutaneously. After 15 minutes the animals were bled via the orbital sinus and blood collected for subsequent growth hormone analysis.
(§4) Doses were randomized between groups of animals (6 rats/group). Potency values were determined by four, six, or eight point bioassays with somatostatin as the reference standard. Relative potency values were calculated by a relative potency formula for parallel line bioassays as described in Finney, D. J. Statistical Method in Biological Assay (Charles Griffin and Co., Ltd., London) Chap. 4 pp. 99-138 (1964).

Rat pituicytes = experiment: Growth hormone inhibition in vitro; assay type: cell-based; details: somatostatin = 1, 4 hours incubation, limits in parentheses
Method: Rat pituicytes were isolated according to the procedures of Vale and Grant "In vitro Pituitary Hormone Secretion Assay for Hypophysiotropic Substances" in Methods in Enzymology. Vol. XXXVII, eds. O'Malley, B. W. and Hardman, J. G. (Academic Press, Inc., New York) pp. 5-93 (1975).
After 4 days in culture, the cells were washed and incubated for 4 hours in Dulbecco-modified Eagle's medium in the presence or absence of graded doses of each analog or somatostatin. The medium was then collected for subsequent growth hormone determination by a double antibody radioimmunoassay for rat growth hormone.
as §4

[1] = test system: pentagastrin evoked gastric secretion; experiment: Pentagastrin evoked gastric secretion in chronic fistula beagle dogs; assay type: in vivo; details: 0.8 γ/kg./min. infused 0-60 min.
Method: The effect of somatostatin and its analogs on gastric secretion were determined by the following method:
Compounds were tested for their ability to inhibit pentagastrin evoked gastric secretion in the chronic fistula dog. Female beagle dogs with a chronic gastric fistula were given pentagastrin (2.5 μg./kg./hour, i.v. from -60 to 120 min.) and gastric outputs were collected via the fistula cannula. Samples were analyzed at 30 minute intervals for volume (ml.) and titratable acid (mEq/L) (titration […] with 0.01N NaOH); total acid output (mEq) was calculated as the product of output volume and acid concentration. Test compounds were infused at a constant rate from 0 to 60 minutes. Data have been expressed as percent change of total acid output relative to a placebo trial in the same animals.

C[C@H](N)C(=O)NCC(=O)N[C@H]1CSSC[C@@H](C(=O)O)NC(=O)[C@H](CO)NC(=O)[C@H]([C@@H](C)O)NC(=O)[C@H](Cc2ccccc2)NC(=O)[C@H]([C@@H](C)O)NC(=O)[C@H](CCCCN)NC(=O)[C@H](Cc2c[nH]c3ccccc23)NC(=O)[C@H](Cc2ccccc2)NC(=O)[C@H](Cc2ccccc2)NC(=O)[C@H](CC(N)=O)NC(=O)[C@H](CCCCN)NC1=O [(I), Somatostatin]
Inhibition of Insulin, potency relative to somatostatin (plasma insulin): 1 | Inhibition of Glucagon, potency relative to somatostatin (plasma glucagon): 1 | Inhibition of Pentobarbital Stimulated Growth Hormone Release In Vivo, potency relative to somatostatin (growth hormone release): 1 | Growth Hormone Inhibition In Vitro, potency relative to somatostatin (Rat pituicytes): 1 | Titratable acid, percent change, during 0-30 ([1]; sample 0-30 min, during treatment): -16% | Total acid output, percent change, during 0-30 ([1]; sample 0-30 min, during treatment, relative to placebo trial in the same animals): -89% | Titratable acid, percent change, during 30-60 ([1]; sample 30-60 min, during treatment): -17% | Total acid output, percent change, during 30-60 ([1]; sample 30-60 min, during treatment, relative to placebo trial in the same animals): -99% | Titratable acid, percent change, post-treat 60-90 ([1]; sample 60-90 min, post-treatment): -61% | Total acid output, percent change, post-treat 60-90 ([1]; sample 60-90 min, post-treatment, relative to placebo trial in the same animals): -93% | Titratable acid, percent change, post-treat 90-120 ([1]; sample 90-120 min, post-treatment): -41% | Total acid output, percent change, post-treat 90-120 ([1]; sample 90-120 min, post-treatment, relative to placebo trial in the same animals): -45%
